The values that follow come from US8722849B2, “Polypeptides” (Novo Nordisk A/S, priority 2011, dated 2014).

SMILES strings stand for the structures. In brackets after ≈: the same amount, converted by molar mass. Read-outs that look alike come from different tables or passages of the source. Starred links: 1 amine or outer side, 2 acyl side, 3 side chain; linkers in the order of their positions; H or OH if unused. Positions of bridges follow the written chain, without caps; N, C: chain ends. Residues, ends and D or L forms follow the SMILES beside them. *: point of attachment. C20 diacid = O=C(O)CCCCCCCCCCCCCCCCCCC(=O)*; C18 diacid = O=C(O)CCCCCCCCCCCCCCCCC(=O)*; γGlu = O=C(O)[C@H](CCC(=O)[*:2])N[*:1] Some results are limits rather than exact numbers.

Series [1] addresses T1, human amylin receptor (amylin 3(a) receptor: human calcitonin receptor + RAMP-3) (Homo sapiens, UniProt O60896+P30988).
T1 construct: expressed in transfected cells; host or cells: BHK570
T1 sequence (P30988 25-474): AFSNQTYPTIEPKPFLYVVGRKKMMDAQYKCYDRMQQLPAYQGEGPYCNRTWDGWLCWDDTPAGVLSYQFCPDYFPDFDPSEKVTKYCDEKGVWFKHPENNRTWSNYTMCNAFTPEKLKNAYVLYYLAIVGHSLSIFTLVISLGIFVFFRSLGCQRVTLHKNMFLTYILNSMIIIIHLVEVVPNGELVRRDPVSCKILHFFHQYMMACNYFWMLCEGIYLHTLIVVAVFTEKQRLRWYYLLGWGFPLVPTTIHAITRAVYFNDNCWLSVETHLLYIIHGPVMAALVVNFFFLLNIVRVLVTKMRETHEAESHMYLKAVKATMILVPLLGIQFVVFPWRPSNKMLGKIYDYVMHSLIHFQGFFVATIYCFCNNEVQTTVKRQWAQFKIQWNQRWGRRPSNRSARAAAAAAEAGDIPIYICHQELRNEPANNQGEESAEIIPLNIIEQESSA
T1 sequence (O60896 24-148 partner): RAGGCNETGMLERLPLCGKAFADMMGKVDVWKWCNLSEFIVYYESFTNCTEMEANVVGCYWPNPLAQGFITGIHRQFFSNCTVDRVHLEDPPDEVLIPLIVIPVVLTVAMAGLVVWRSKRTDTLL
In words: Assay (II)a functional CRE-luciferase assay, human amylin receptor. In kind it is cell-based. The following applies: Table 2; BHK amylin 3(a)-receptor/CRE-luc cells.

Series [2] deals with T2, human calcitonin receptor (Homo sapiens, UniProt P30988).
T2 construct: expressed in transfected cells; host or cells: BHK570
T2 sequence (P30988 25-474): T1 sequence (P30988 25-474)
Description: Assay (II)a functional CRE-luciferase assay, human calcitonin receptor. The format is cell-based. The note with it: Table 7; human calcitonin (CTa) receptor.

Series [3] in a line: Assay (IV) determination of solubility. The format is physicochemical. Put shortly: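 Eight 100 mM buffers (glycylglycine pH 3.0–5.0, bistrispropane pH 6.0–8.0) each received an equal volume of polypeptide dissolved in water at ~500 nmol/ml. Soluble polypeptide was measured by HPLC following 18 hours at room temperature and centrifugation.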
Setting [4] is: bistrispropane buffer, pH 6, pH 6.0, read-out: Solubility pH 6.0.
Where [5] appears, read: bistrispropane buffer, pH 6.5, pH 6.5, read-out: Solubility pH 6.5.
Setting [6] is: bistrispropane buffer, pH 7, pH 7.0, 18 hours at room temperature, Table 3, read-out: Solubility pH 7.0.
Where [7] appears, read: bistrispropane buffer, pH 7, pH 7.0, read-out: Solubility pH 7.0.
Where [8] appears, read: bistrispropane buffer, pH 7.5, pH 7.5, read-out: Solubility pH 7.5.
The mark [9] stands for this setting: bistrispropane buffer, pH 8, pH 8.0, read-out: Solubility pH 8.0.
[10] abbreviates: glycylglycine buffer, pH 3, pH 3.0, read-out: Solubility pH 3.0.
The mark [11] stands for this setting: glycylglycine buffer, pH 4, pH 4.0, 18 hours at room temperature, Table 2, read-out: Solubility pH 4.0.
Where [12] appears, read: glycylglycine buffer, pH 4, pH 4.0, read-out: Solubility pH 4.0.
Where [13] appears, read: glycylglycine buffer, pH 5, pH 5.0, read-out: Solubility pH 5.0.

As usually defined, the EC50 is the concentration giving half of the maximal effect. The solubility is how much of the substance goes into solution per volume.

On to `CC[C@H](C)[C@H](NC(=O)[C@@H]1CCCN1C(=O)CNC(=O)[C@H](Cc1ccccc1)NC(=O)[C@H](CC(N)=O)NC(=O)[C@H](CC(N)=O)NC(=O)[C@H](CO)NC(=O)[C@H](CO)NC(=O)[C@H](Cc1c[nH]cn1)NC(=O)[C@H](Cc1c[nH]cn1)NC(=O)[C@H](CC(C)C)NC(=O)[C@H](Cc1ccccc1)NC(=O)[C@H](CCC(=O)O)NC(=O)[C@H](C)NC(=O)[C@H](CC(C)C)NC(=O)[C@H](CCCNC(=N)N)NC(=O)[C@H](CCC(N)=O)NC(=O)[C@@H](NC(=O)[C@H](C)NC(=O)[C@@H]1CSSC[C@H](NC(=O)[C@H](CCCNC(=N)N)NC(=O)CC[C@H](NC(=O)CCCCCCCCCCCCCCCCCCC(=O)O)C(=O)O)C(=O)N[C@@H](CC(N)=O)C(=O)N[C@@H]([C@@H](C)O)C(=O)N[C@@H](C)C(=O)N[C@@H]([C@@H](C)O)C(=O)N1)[C@@H](C)O)C(=O)N[C@@H](CC(C)C)C(=O)N1CCC[C@H]1C(=O)N1CCC[C@H]1C(=O)N[C@H](C(=O)N[C@@H](CC(N)=O)C(=O)N[C@H](C(=O)NCC(=O)N[C@@H](CO)C(=O)N[C@@H](CC(N)=O)C(=O)N[C@H](C(=O)N1CCC[C@H]1C(N)=O)[C@@H](C)O)C(C)C)[C@@H](C)O` [Example 96, N-alpha-[(S)-4-Carboxy-4-(19-carboxynonadecanoylamino)butyryl]-[Arg1,Glu14,His17,Pro37]-pramlintide] ({C20 diacid-γGlu}-RCNTATCATQRLAEFLHHSSNNFGPILPPTNVGSNTP-NH2; disulfide 2-7 (inferred)), for which the figures for the EC50 in series [1] and in series [2] were 0.043 nM and 0.055 nM, respectively. Besides, the solubility at 18 h in series [3] (setting [4]) is > 200 µM; in series [3] (setting [5]), > 200 µM; in series [3] (setting [6]), > 200 µM; in series [3] (bistrispropane buffer, pH 7, pH 7.0, Table 8, read-out: Solubility pH 7.0) it was > 200 µM; in series [3] (bistrispropane buffer, pH 7, pH 7.0, Table 9, read-out: Solubility pH 7.0), > 200 µM; in series [3] (setting [7]), > 200 µM. Also, the solubility at 18 h was > 200 µM in series [3] (bistrispropane buffer, pH 7.5, pH 7.5, Table 9, read-out: Solubility pH 7.5); > 200 µM in series [3] (setting [8]); > 200 µM in series [3] (setting [9]); > 200 µM in series [3] (setting [10]); > 200 µM in series [3] (setting [11]); > 200 µM in series [3] (setting [12]). In addition, in series [3] (setting [13]), the solubility at 18 h was > 200 µM.
Turning to `CC[C@H](C)[C@H](NC(=O)[C@@H]1CCCN1C(=O)CNC(=O)[C@H](Cc1ccccc1)NC(=O)[C@H](CC(N)=O)NC(=O)[C@H](CC(N)=O)NC(=O)[C@H](CO)NC(=O)[C@H](CO)NC(=O)[C@H](Cc1c[nH]cn1)NC(=O)[C@H](Cc1c[nH]cn1)NC(=O)[C@H](CC(C)C)NC(=O)[C@H](Cc1ccccc1)NC(=O)[C@H](CCC(=O)O)NC(=O)[C@H](C)NC(=O)[C@H](CC(C)C)NC(=O)[C@H](CCCNC(=N)N)NC(=O)[C@H](CCC(N)=O)NC(=O)[C@@H](NC(=O)[C@H](C)NC(=O)[C@@H]1CSSC[C@H](NC(=O)[C@H](CCCCN)NC(=O)[C@H](CCC(=O)O)NC(=O)CC[C@H](NC(=O)CCCCCCCCCCCCCCCCCCC(=O)O)C(=O)O)C(=O)N[C@@H](CC(N)=O)C(=O)N[C@@H]([C@@H](C)O)C(=O)N[C@@H](C)C(=O)N[C@@H]([C@@H](C)O)C(=O)N1)[C@@H](C)O)C(=O)N[C@@H](CC(C)C)C(=O)N1CCC[C@H]1C(=O)N1CCC[C@H]1C(=O)N[C@H](C(=O)N[C@@H](CC(N)=O)C(=O)N[C@H](C(=O)NCC(=O)N[C@@H](CO)C(=O)N[C@@H](Cc1c[nH]cn1)C(=O)N[C@H](C(=O)N[C@@H](Cc1ccc(O)cc1)C(N)=O)[C@@H](C)O)C(C)C)[C@@H](C)O` [Example 56, N-alpha-[(S)-4-Carboxy-4-(19-carboxynonadecanoylamino)butyryl]-Glu-[Glu14,His17,His35]-pramlintide] ({C20 diacid-γGlu}-EKCNTATCATQRLAEFLHHSSNNFGPILPPTNVGSHTY-NH2; disulfide 3-8 (inferred)), the EC50 was found to be 0.299 nM in series [1] and 0.352 nM in series [2]. Besides, the solubility at 18 h in series [3] (setting [4]), in series [3] (setting [5]), in series [3] (setting [6]), in series [3] (setting [7]), in series [3] (setting [8]) and in series [3] (setting [9]) was > 200 µM each time. For the same molecule, the solubility at 18 h in series [3] (setting [10]), in series [3] (setting [11]), in series [3] (setting [12]) and in series [3] (setting [13]) was > 200 µM each time.
For `CC[C@H](C)[C@H](NC(=O)[C@@H]1CCCN1C(=O)CNC(=O)[C@H](Cc1ccccc1)NC(=O)[C@H](CC(N)=O)NC(=O)[C@H](CC(N)=O)NC(=O)[C@H](CO)NC(=O)[C@H](CO)NC(=O)[C@H](Cc1c[nH]cn1)NC(=O)[C@H](Cc1c[nH]cn1)NC(=O)[C@H](CC(C)C)NC(=O)[C@H](Cc1ccccc1)NC(=O)[C@H](CCC(=O)O)NC(=O)[C@H](C)NC(=O)[C@H](CC(C)C)NC(=O)[C@H](CCCNC(=N)N)NC(=O)[C@H](CCC(N)=O)NC(=O)[C@@H](NC(=O)[C@H](C)NC(=O)[C@@H]1CSSC[C@H](NC(=O)[C@H](Cc2c[nH]cn2)NC(=O)CC[C@H](NC(=O)CCCCCCCCCCCCCCCCC(=O)O)C(=O)O)C(=O)N[C@@H](CC(N)=O)C(=O)N[C@@H]([C@@H](C)O)C(=O)N[C@@H](C)C(=O)N[C@@H]([C@@H](C)O)C(=O)N1)[C@@H](C)O)C(=O)N[C@@H](CC(C)C)C(=O)N1CCC[C@H]1C(=O)N1CCC[C@H]1C(=O)N[C@H](C(=O)N[C@@H](CC(N)=O)C(=O)N[C@H](C(=O)NCC(=O)N[C@@H](CO)C(=O)N[C@@H](CC(N)=O)C(=O)N[C@H](C(=O)N[C@@H](Cc1ccc(O)cc1)C(N)=O)[C@@H](C)O)C(C)C)[C@@H](C)O` [Example 48, N-alpha-[(S)-4-Carboxy-4-(17-carboxyheptadecanoylamino)butyryl]-[His1,Glu14,His17]-pramlintide] ({C18 diacid-γGlu}-HCNTATCATQRLAEFLHHSSNNFGPILPPTNVGSNTY-NH2; disulfide 2-7 (inferred)), the EC50 in series [1] came out at 0.0425 nM; in series [2] it was 0.112 nM. In addition, the solubility at 18 h is > 200 µM in series [3] (setting [4]); 177 µM (≈ 785 µg/mL) in series [3] (setting [5]); > 200 µM in series [3] (setting [6]); > 200 µM in series [3] (setting [7]); > 200 µM in series [3] (setting [8]); > 200 µM in series [3] (setting [9]). For the same molecule, the solubility at 18 h in series [3] (setting [10]), in series [3] (setting [11]), in series [3] (setting [12]) and in series [3] (setting [13]) was > 200 µM throughout.
